The results in this text go back to the supplement of paper PMC7661543.

± gives the standard deviation of the averaged measurements.

What all share (assay): relative cell number vs DMSO control (72 h) (% of DMSO); higher = less growth inhibition (more cells)
Holding throughout (conditions): sgRNA knockout: sgNT

Experiment [1] has as its system SKBR3. A digest of the protocol: (§1)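 Doxycycline at 100 ng/mL was applied for 6 days to pooled Cas9-engineered breast cancer lines, each holding 12 sgRNA perturbations. The cells were then seeded at 5000 per 96-well and exposed in duplicate for 72 h to four 10-fold doses (10 nM–10 μM or 1 nM–1 μM). Cell numbers were read from sequenced sgRNA and cell-line barcodes using per-sample 293T spike-in standard curves. The reported relative cell number is the percent of the median of DMSO-treated samples.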

The subject of experiment [2] is BT-20. A digest of the protocol:
as §1

Experiment [3] concerns HCC-38. The method in brief: as §1
Experiment [4] has as its system MDA-MB-231. The method in brief: as §1
Experiment [5] concerns ZR-75-1. The method in brief:
as §1

Consider `CC(C)(C#N)c1ccc(N2C(=O)OCc3cnc4ccc(-c5cnc6ccccc6c5)cc4c32)cc1`, for which the relative cell number in experiment [1] (10 nM) was 101 ± 19; in experiment [1] (100 nM) it was 100 ± 3; in experiment [1] (1000 nM), 79.39 ± 0.72; in experiment [1] (10000 nM) it was 49 ± 9.6; in experiment [2] (10 nM) it was 98.1 ± 10; in experiment [2] (100 nM), 102 ± 7. Also, the relative cell number was found to be 81.3 ± 1.9 in experiment [2] (1000 nM); 50.8 ± 23 in experiment [2] (10000 nM); 103 ± 28 in experiment [3] (10 nM); 97 ± 16 in experiment [3] (100 nM); 82.6 ± 15 in experiment [3] (1000 nM); 33.2 ± 4.7 in experiment [3] (10000 nM). The relative cell number in experiment [4] (10 nM) stood at 104 ± 25; in experiment [4] (100 nM), 94.3 ± 3.9; in experiment [4] (1000 nM), 82.3 ± 23; in experiment [4] (10000 nM), 49.7 ± 0.79; in experiment [5] (10 nM), 86.6 ± 16; in experiment [5] (100 nM), 116 ± 19. The relative cell number in experiment [5] (1000 nM) came out at 55.1 ± 1.7; in experiment [5] (10000 nM), 38.4 ± 14.
In the case of `O=[N+]([O-])c1ccc(O)c2ncccc12` [Nitroxoline], the relative cell number was found to be 82.9 ± 23 in experiment [1] (10 nM); 91.1 ± 3.5 in experiment [1] (100 nM); 43.59 ± 0.14 in experiment [1] (1000 nM); 40 ± 6.6 in experiment [1] (10000 nM); 93.1 ± 19 in experiment [2] (10 nM); 87.9 ± 43 in experiment [2] (100 nM). Further, the relative cell number was found to be 114 ± 13 in experiment [2] (1000 nM); 56.1 ± 6.1 in experiment [2] (10000 nM); 86.5 ± 3.6 in experiment [3] (10 nM); 88.83 ± 0.36 in experiment [3] (100 nM); 107 ± 14 in experiment [3] (1000 nM); 45.9 ± 0.87 in experiment [3] (10000 nM). Also, the relative cell number was found to be 54.2 ± 9.2 in experiment [4] (10 nM); 103 ± 22 in experiment [4] (100 nM); 88.3 ± 10 in experiment [4] (1000 nM); 37.7 ± 9.7 in experiment [4] (10000 nM); 86.7 ± 6.9 in experiment [5] (10 nM); 94.1 ± 17 in experiment [5] (100 nM). The relative cell number in experiment [5] (1000 nM) was 97.4 ± 51; in experiment [5] (10000 nM), 33.4 ± 19.
On to `C#Cc1cccc(Nc2ncnc3cc(OCCOC)c(OCCOC)cc23)c1` [Erlotinib], for which the relative cell number in experiment [1] (10 nM) came out at 124 ± 20; in experiment [1] (100 nM), 97.3 ± 14; in experiment [1] (1000 nM), 79 ± 12; in experiment [1] (10000 nM), 43.6 ± 8.1; in experiment [2] (10 nM), 103 ± 8.8; in experiment [2] (100 nM) it was 82.9 ± 2.6. For the same compound, the relative cell number in experiment [2] (1000 nM) amounted to 81.9 ± 2; in experiment [2] (10000 nM), 82.9 ± 8.9; in experiment [3] (10 nM), 105 ± 3; in experiment [3] (100 nM) it was 87.3 ± 9.9; in experiment [3] (1000 nM), 99.1 ± 6.6; in experiment [3] (10000 nM), 94.8 ± 1.3. In addition, the relative cell number amounted to 98.8 ± 11 in experiment [4] (10 nM); 83.4 ± 2.6 in experiment [4] (100 nM); 98.4 ± 8.8 in experiment [4] (1000 nM); 83.6 ± 2.8 in experiment [4] (10000 nM); 99 ± 27 in experiment [5] (10 nM); 63.2 ± 3.8 in experiment [5] (100 nM). Further, the relative cell number in experiment [5] (1000 nM) was determined as 97 ± 18; in experiment [5] (10000 nM), 84.2 ± 26.
On to `C=C1C[C@@H]2[C@H](CC[C@]3(C)C(=O)CC[C@@H]23)[C@@]2(C)C=CC(=O)C=C12` [Exemestane], for which the relative cell number in experiment [1] (10 nM) turned out to be 108 ± 22; in experiment [1] (100 nM) it was 93.4 ± 18; in experiment [1] (1000 nM) it was 115 ± 9.4; in experiment [1] (10000 nM) it was 102 ± 12; in experiment [2] (10 nM), 99.8 ± 6; in experiment [2] (100 nM) it was 89.5 ± 1.1. Further, the relative cell number was determined as 103 ± 5.9 in experiment [2] (1000 nM); 95.4 ± 9.2 in experiment [2] (10000 nM); 108 ± 28 in experiment [3] (10 nM); 92 ± 12 in experiment [3] (100 nM); 113 ± 3.1 in experiment [3] (1000 nM); 109 ± 25 in experiment [3] (10000 nM). For the same compound, the relative cell number amounted to 89.3 ± 13 in experiment [4] (10 nM); 88.2 ± 22 in experiment [4] (100 nM); 80.5 ± 6 in experiment [4] (1000 nM); 69.8 ± 21 in experiment [4] (10000 nM); 123 ± 22 in experiment [5] (10 nM); 82.5 ± 26 in experiment [5] (100 nM). The relative cell number in experiment [5] (1000 nM) is 104 ± 67; in experiment [5] (10000 nM), 99 ± 4.8.
Turning to `Oc1cccc(-c2nc(N3CCOCC3)c3oc4ncccc4c3n2)c1` [PI103], the relative cell number in experiment [1] (10 nM) amounted to 145 ± 47; in experiment [1] (100 nM) it was 134 ± 2.6; in experiment [1] (1000 nM), 62.6 ± 31; in experiment [1] (10000 nM), 33.1 ± 2.4; in experiment [2] (10 nM) it was 120 ± 44; in experiment [2] (100 nM) it was 124 ± 37. Further, the relative cell number in experiment [2] (1000 nM) stood at 68.7 ± 11; in experiment [2] (10000 nM), 49.7 ± 11; in experiment [3] (10 nM), 118 ± 1.5; in experiment [3] (100 nM), 111 ± 1.1; in experiment [3] (1000 nM), 85.3 ± 4.5; in experiment [3] (10000 nM) it was 31.4 ± 2.4. The relative cell number was determined as 143 ± 15 in experiment [4] (10 nM); 126 ± 41 in experiment [4] (100 nM); 118 ± 15 in experiment [4] (1000 nM); 37.3 ± 11 in experiment [4] (10000 nM); 121 ± 13 in experiment [5] (10 nM); 129 ± 16 in experiment [5] (100 nM). The relative cell number in experiment [5] (1000 nM) was found to be 58 ± 21; in experiment [5] (10000 nM) it was 18.9 ± 2.2.
`CCC(C)SSc1ncc[nH]1` (stereo not given) [PX12]: the relative cell number in experiment [1] (10 nM) came out at 95.4 ± 14; in experiment [1] (100 nM), 95.5 ± 65; in experiment [1] (1000 nM), 88.8 ± 31; in experiment [1] (10000 nM), 57.7 ± 24; in experiment [2] (10 nM), 116 ± 7.8; in experiment [2] (100 nM), 132 ± 1.4. Besides, the relative cell number is 100 ± 4.2 in experiment [2] (1000 nM); 99.6 ± 31 in experiment [2] (10000 nM); 113 ± 8.1 in experiment [3] (10 nM); 101 ± 15 in experiment [3] (100 nM); 93.6 ± 8.6 in experiment [3] (1000 nM); 84.9 ± 8.4 in experiment [3] (10000 nM). The relative cell number in experiment [4] (10 nM) came out at 104 ± 30; in experiment [4] (100 nM), 128 ± 20; in experiment [4] (1000 nM), 99.5 ± 25; in experiment [4] (10000 nM), 54.6 ± 0.63; in experiment [5] (10 nM), 116 ± 19; in experiment [5] (100 nM), 102 ± 48. Besides, the relative cell number in experiment [5] (1000 nM) was 69.5 ± 9.5; in experiment [5] (10000 nM) it was 54.7 ± 25.
On to `Cc1ccc(C(=O)N(CCCN)[C@@H](c2oc3cc(Cl)ccc3c(=O)c2Cc2ccccc2)C(C)C)cc1`, for which the relative cell number in experiment [1] (10 nM) amounted to 15.6 ± 15; in experiment [1] (100 nM), 11.3 ± 1.2; in experiment [1] (1000 nM), 15.3 ± 5.2; in experiment [1] (10000 nM) it was 5.26 ± 4.4; in experiment [2] (10 nM) it was 29.6 ± 8.5; in experiment [2] (100 nM), 27.7 ± 4.7. For the same compound, the relative cell number in experiment [2] (1000 nM) was found to be 33.7 ± 11; in experiment [2] (10000 nM), 5.17 ± 2.2; in experiment [3] (10 nM) it was 24 ± 0.85; in experiment [3] (100 nM) it was 27.8 ± 8.2; in experiment [3] (1000 nM), 28.9 ± 4.7; in experiment [3] (10000 nM), 5.58 ± 0.82. Besides, the relative cell number in experiment [4] (10 nM) was 23 ± 9; in experiment [4] (100 nM) it was 16.8 ± 5.6; in experiment [4] (1000 nM) it was 17.2 ± 11; in experiment [4] (10000 nM) it was 4.71 ± 1.3; in experiment [5] (10 nM) it was 26.5 ± 2.3; in experiment [5] (100 nM) it was 21.8 ± 0.36. In addition, the relative cell number is 27.9 ± 5.1 in experiment [5] (1000 nM) and 3 ± 1.2 in experiment [5] (10000 nM).
